Measurements as given in patent publication US8444858B2, “Control of development of biofilms in industrial process water” (A.Y. Laboratories Ltd., priority 2001, dated 2013).

Experiments:
biofilm [1] = test: Waste water fouling control in a 7 km pipe, Hazen-Williams coefficient; conditions: NaOCl at a level of up to 50 mg/l (calculated as Cl2)
Experimental: Treated wastewater was piped from a wastewater treatment plant to a location 7 kilometers away.
(The Hazen-Williams coefficient is used to express water flow through industrial pipes. It is calculated using the formula
[formula] wherein P is the friction pressure drop expressed in pounds per square inch per 1000 feet of pipe length, B is the flow rate in barrels per hour, s is the specific gravity of the liquid, C=a friction factor (the Hazen-Williams coefficient), and d is the internal diameter of the pipe in inches. P and B are measured for a given pipe, s and d are treated as constants, and C is calculated. The results are presented as the Hazen-Williams coefficient.
Waste water (up to 10 m^3/h) was used to appropriately dilute both chemicals. An on-line pH meter controlled the production process and the hypochlorite feeding rate to ensure the production of a stable biofilm inhibiting substance. The biofilm inhibiting substance was injected into the treated waste pipe as it was produced. Concentration of the biofilm inhibiting substance stock solution was 3000-4000 ppm; the pH was maintained at 9.5-10.

biofilm [2] = test: Pilot plant wastewater pipes, difference in Hazen-Williams coefficient treated vs control pipe; conditions: single 3 h treatment on day 1 at 10 ppm as total chlorine
Experimental: Treated wastewater was pumped through several pipes of 10 m length and 4 inches inner diameter in a pilot plant. […] Pressure drop through each pipe was monitored on-line, and average HW coefficients were calculated.
The biofilm inhibiting substance in this example was produced as follows, using a small feeding system was built specifically for this trial. […] The concentration of the biofilm inhibiting substance pre-injection solution was ˜3600 ppm and the pH was 9.2-9.6. […]

catalase (Merck) = test: Inactivation of catalase, residual H2O2 laboratory test; format: biochemical; conditions: for Residual H2O2 concentration, % of 3.5% g/l: catalase 26 units/ml
Experimental: Freshly prepared biofilm inhibiting substance was added to the appropriate flasks containing diluted catalase at a pre-defined feed rate. The contents of the containers were mixed for 60 minutes at room temperature prior to addition of H2O2 (to a final H2O2 concentration of 3.5 g/l). After addition of the H2O2, the mixture was allowed to mix for 30 minutes at room temperature, at which point H2O2 residues were measured in each flask in accordance with the Dr. Lange Cuvette Test LCW 058, measured with LASA 20 (based on Jander/Blasius: Lehrbach der Analytischen and Praparative Anorganischen Chemie, as described in the Handbook of Photometrical Operation Analysis (October 1997)).
Sodium hypochlorite was diluted in DI water to a final concentration of 6000 ppm expressed as total chlorine. Ammonium bromide solution (equimolar to 1.1 mole of the diluted sodium hypochlorite solution, 10% excess on a molar basis) and ammonium chloride solution (equimolar to 1.1 mole of the diluted hypochlorite solution, 10% excess on a molar basis) were prepared. The diluted hypochlorite (50 ml) was added dropwise to 50 ml of the appropriate ammonium salt while the pH was constantly measured. The biofilm inhibiting substance concentration in the produced stock solution was immediately measured and the biofilm inhibiting substance at the appropriate feed level was immediately added to the test flasks.

[3] = De-inking plant field trial, residual H2O2, residual biofilm inhibiting substance and H2O2 consumption
Experimental: A de-inking system had been using 7-10 kg H2O2 per ton of waste paper.
The reaction pH was Maintained at 9.8-10.0. The Production process was controlled to ensure synchronous metering of the two chemicals, continuous mixing at the predetermined molar ratio and reproducible production of a stable biofilm inhibiting substance stock solution for the duration of the trial and longer. […] After 850 minutes the dosing rate was reduced to 85 g/ton expressed as total Cl2 by feeding the biofilm inhibiting substance semi-continuously. Various parameters were monitored during start-up of the trial: Residual biofilm inhibiting substance was measured (using a Hach pocket colorimeter, total Cl2, based on the DPD method adapted from Standard Methods for Examination of Waste and Waste Water). […] When necessary, samples were diluted with DI water.

[4] = tested on: mixed culture of slime-forming-bacteria which had been isolated from a paper machine; test: Formation of biofilm on stainless steel coupons in a model system (viable counts in medium and on coupons); format: cell-based
Experimental: Formation of biofilm on stainless steel coupons in the presence or absence of an oxidizing biocide or a biofilm inhibiting substance was evaluated in the laboratory. The test system consisted of (a) three closed flasks each containing 20 L nutrient-rich medium (diluted three-fold from its recommended use concentration), (b) three closed cells containing stainless steel coupons hanging freely, and (c) three identical circulation pumps, each pump connected via plastic pipes to one of the flasks and to one of the cells. The system was placed in a thermostatic room at 35° C.
An innoculum containing a mixed culture of slime-forming-bacteria which had been isolated from a paper machine was added to each of the flasks. An oxidizer containing a 5 ppm mixture (expressed as total Cl2) of bromochlorodimethylhydantoin (an oxidizing biocide which is a source of HOBr and HOCl) (hereinafter “mixed halogens”) was added to the first flask once a day for the duration of the trial (4 days). […] The third flask served as a control for the two flasks treated with the oxidizing biocide or biofilm inhibiting substances. […] A diluted solution of sodium hypochlorite in deionized (DI) water (˜8000 ppm as total chlorine) was fed with one pump; a diluted solution of ammonium bromide (12500 ppm) was fed with the second pump. The two diluted solutions were synchronously mixed in a short glass pipe to form a pre-injection solution of biofilm inhibiting substance, using a pH meter to control and check the stability of the biofilm inhibiting substance formed. The biofilm inhibiting substance was fed to the test system immediately as it was produced.
On days 2 and 4, each closed cell was opened and 2 coupons were aseptically removed from each cell. At the same time samples of the circulating medium were taken as well. Sampling was conducted after feeding the daily slug dose of biocide.
Each sample of medium was serially 10-fold diluted in sterile saline solution and plated in molten agar. Each coupon was thoroughly rinsed to remove any adhered particles, aseptically scraped, and the material removed by scraping was quantitatively dispersed in saline solution, vortexed, serially 10-fold diluted and plated in molten agar. Viable counts of microorganisms were taken after 48 h of incubation at 35° C. Viable counts of cells in the medium are presented as colony forming units (cfu) per ml; viable counts on the coupon surfaces are presented as cfu/cm^2.

## [Na+].[O-]Cl [NaOCl, reference compound]
Biofilm [1]
  improving water conductivity in the pipes: ineffective

## NCl [Chloramine, monochloroamine, reference compound]
Biofilm [2]; day 1
  HW Diff. treated pipe - Control: 13.0
Biofilm [2]; day 2
  HW Diff. treated pipe - Control: 10.8
Biofilm [2]; day 3
  HW Diff. treated pipe - Control: 10.7
Biofilm [2]; day 4
  HW Diff. treated pipe - Control: 15.0
Biofilm [2]; day 5
  HW Diff. treated pipe - Control: 15.2
Biofilm [2]; day 6
  HW Diff. treated pipe - Control: 15.15
Biofilm [2]; day 7
  HW Diff. treated pipe - Control: 14.6
Biofilm [2]; day 8
  HW Diff. treated pipe - Control: 12.9
Biofilm [2]; day 9
  HW Diff. treated pipe - Control: 13.0
Biofilm [2]; day 10
  HW Diff. treated pipe - Control: 11.5
Biofilm [2]; day 11
  HW Diff. treated pipe - Control: 9.5
Biofilm [2]; day 12
  HW Diff. treated pipe - Control: 8.6
Biofilm [2]; day 13
  HW Diff. treated pipe - Control: 7.0
Biofilm [2]; day 14
  HW Diff. treated pipe - Control: 6.2
Biofilm [2]; day 15
  HW Diff. treated pipe - Control: 4.4
Biofilm [2]; day 16
  HW Diff. treated pipe - Control: 2.4
Biofilm [2]; day 17
  HW Diff. treated pipe - Control: 0.8
Biofilm [2]; day 18
  HW Diff. treated pipe - Control: 0.7
Catalase (Merck)
  oxidation of H2O2 by the substance: do not oxidize H2O2
Catalase (Merck); BIS 6.7 ppm as total chlorine
  Residual H2O2 concentration, % of 3.5% g/l: 6.8 % of 3.5% g/l
Catalase (Merck); BIS 58 ppm as total chlorine
  Residual H2O2 concentration, % of 3.5% g/l: 97.1 % of 3.5% g/l
Catalase (Merck); BIS 128 ppm as total chlorine
  Residual H2O2 concentration, % of 3.5% g/l: 99.4 % of 3.5% g/l

## O=CCCCC=O [glutaraldehyde, reference compound]
[3]; parallel de-inking system at the same plant, commercial chemical formulation containing glutaraldehyde
  average H2O2 consumption rate: ~4 kg H2O2/ton of waste paper
[3]; previous attempts on the trial de-inking system
  control of the enzymatic degradation of H2O2: did not yield cost-effective results

## CC1(C)C(=O)N(Cl)C(=O)N1Br [Mixed Halogens, bromochlorodimethylhydantoin, reference compound]
[4]; coupons after 4 days
  increase in the viable count of biofilm bacteria compared to day 2: 3 fold
[4]; medium sample after four days
  reduction in viable count of planktonic microorganisms: ~10 fold
[4]; planktonic cells in circulating medium, day 2, daily slug dose (Mixed Halogens 5 ppm, Fuzzicide BAC […] expressed as Cl2), 35° C.
  Viable Counts After 2 Days, medium: 9 × 10^6 cfu/ml
[4]; planktonic cells in circulating medium, day 4, daily slug dose (Mixed Halogens 5 ppm, Fuzzicide BAC […] expressed as Cl2)
  Viable Counts After 4 Days, medium: 1 × 10^6 cfu/ml
[4]; stainless steel coupons, day 2, daily slug dose (Mixed Halogens 5 ppm, Fuzzicide BAC […] expressed as Cl2)
  Viable Counts After 2 Days, coupon surfaces: 27 cfu/cm^2
[4]; stainless steel coupons, day 4, daily slug dose (Mixed Halogens 5 ppm, Fuzzicide BAC […] expressed as Cl2)
  Viable Counts After 4 Days, coupon surfaces: 95 Cfu/cm^2
